Literature values as cited in patent publication US12157728B2, “Targeting of endoplasmic reticulum dysfunction and protein folding stress to treat neurological conditions” (ALS Therapy Development Institute, priority 2018, dated 2024).
Structures can show the parent of a compound that is named as a salt.

Columns and labels:
[1] = in vivo
[2] = system: GADD34/protein phosphatase 1 (PP1)
[3] = system: β-amyloid-induced neuronal death
[4] = system: ER stress-mediated apoptosis; conditions: induced by tunicamycin
[5] = system: SOD1 mice
[6] = system: PC12 cells
[7] = not given; remark: listed apart in the source

Row | Compound | solubility in 0.9% saline and aqueous buffers (0.9% saline and aqueous buffers at or below pH 2.0) | solubility in aqueous buffers (aqueous buffers at or above pH 3.0) | solubility in water (water) | clearance [1] | eIF2α dephosphorylation via GADD34/PP1 complex [2] | β-amyloid-induced neuronal death and microglial activation [3] | ER stress-mediated apoptosis [4] | motor neuron degeneration [5] | survival [5] | cell death induced by α-synuclein [6] | solubility in aqueous solutions [7]
1 | CCCCCCCCc1ccc(CCC(N)(CO)CO)cc1 [Fingolimod hydrochloride] | soluble | very slightly soluble or practically insoluble | > 10% |  |  |  |  |  |  |  | 
2 | O=C(/C=C/c1ccccc1)NC(NC(=S)Nc1cccc2cccnc12)C(Cl)(Cl)Cl (centres unmarked) [Salubrinal, N-(2,2,2-trichloro-1-(3-(quinolin-8-yl)thioureido)ethyl)cinnamamide] |  |  |  | rapid clearance | prevent eIF2α dephosphorylation | attenuate β-amyloid-induced neuronal death and microglial activation | inhibit ER stress-mediated apoptosis | slowed motor neuron degeneration | extended survival | protected PC12 cells from cell death | low solubility
